The subject of test [1] is Sclerotinia sclerotiorum. Nature of the test: Field trials in oilseed rape, incidence of white mold and yield. As to conditions: single application; for Yield of Oilseed Rape: untreated 4.08; for Percent (%) Incidence of Sclerotinia sclerotiorum at B65-B67 Growth Stage in Oilseed Rape: untreated 55. In kind it is in vivo.
Test [2] concerns Sclerotinia sclerotiorum. Nature of the test: Field trial in dry bean, incidence of white mold. Particulars: two applications R5 and R6, untreated 12.5. The format is in vivo. On the procedure:
A field trial in dry bean was carried out in the state of Sao Paulo, Brazil. Two applications of the fungicides were done at growth stages R5 (first bloom) and R6 (full bloom) by using a carbon dioxide (CO2) backpack sprayer at an application rate of 600 liters per hectare (Uha). […] Treatments consisted of fungicide compounds including Formula I, fluazinam, thiophanate-methyl, and procymidone.

Test [3] deals with Sclerotinia sclerotiorum. Nature of the test: Inhibition of mycelial growth by fungicides in Petri dishes (growth medium + fungicide). The format is cell-based. As to conditions: for inhibition at 0.1 ppm / inhibition at 1 ppm / inhibition at 10 ppm / inhibition at 100 ppm: Sclerotinia sclerotiorum, 192 h, read-out: Percent (%) Inhibition of Mycelial Growth of Sclerotinia sclerotiorum. On the procedure: Evaluation of Inhibition of Mycelial Growth by Fungicides (Sclerotinia sclerotiorum; Bayer code: […]): The growth inhibition of the fungus (Sclerotinia sclerotiorum) was assessed in Petri dishes containing the growth medium+fungicide at different concentrations. […] The number of sclerotia were counted. A completely randomized design with three replicates was used. Treatments consisted of fungicide compounds including Formula I, fluazinam, thiophanate-methyl, and procymidone.

The subject of test [4] is Sclerotinia sclerotiorum. As to the kind of experiment: Inhibition of Sclerotinia sclerotiorum on detached soybean leaves. The format is in vivo. Particulars: read-out: Percent (%) Inhibition of Sclerotinia sclerotiorum on Detached Soybean Leaves. On the procedure: Evaluation of Inhibition of Sclerotinia sclerotiorum on Detached Soybean Leaves: Detached leaves of soybean were immersed for 3 seconds (s) in fungicide solutions at different concentrations and placed in Petri dishes. […] Symptoms were assessed for percent disease severity. Three leaves per plate with three replicates in a completely randomized design. Treatments consisted of fungicide compounds including Formula I, fluazinam, thiophanate-methyl, and procymidone.

On to `OC(Cc1ccccc1Cl)(Cn1nc[nH]c1=S)C1(Cl)CC1` (racemic) [Prothioconazole, 2-[(2RS)-2-(1-chlorocyclopropyl)-3-(2-chlorophenyl)-2-hydroxypropyl]-2H-1,2,4-triazole-3(4H)-thione], for which the entries for the “Yield of Oilseed Rape” value in test [1] (150 g ai/ha) and in test [1] (173 g ai/ha) were 4.4 T/ha and 4.49 T/ha, respectively. The “Percent (%) Incidence of Sclerotinia sclerotiorum at B65-B67 Growth Stage in Oilseed Rape” value (“Percent (%) Incidence … in Oilseed Rape” below) in test [1] (150 g ai/ha) came out at 31%; in test [1] (173 g ai/ha), 20%.
Regarding `O=C(Nc1ccccc1-c1ccc(Cl)cc1)c1cccnc1Cl` [Boscalid, boscalid], in test [1] (250 g ai/ha), the “Yield of Oilseed Rape” value was 4.34 T/ha and the “Percent (%) Incidence … in Oilseed Rape” value was determined as 4%.
By inhibition is commonly meant the percentage by which the read-out fell short of the control. As for `COc1ccnc(C(=O)N[C@H]2COC(=O)[C@H](Cc3ccccc3)[C@@H](OC(=O)C(C)C)[C@H](C)OC2=O)c1OCOC(=O)C(C)C` [Compound I, (3S,6S,7R,8R)-8-benzyl-3-(3-((isobutyryloxy)methoxy)-4-methoxypicolinamido)-6-methyl-4,9-dioxo-1,5-dioxonan-7-yl isobutyrate], the “Percent (%) Incidence of Sclerotinia sclerotiorum at R7 Growth Stage on Dry Bean” value in test [2] (120 g ai/ha) came out at 3.5%; in test [2] (240 g ai/ha), 1%. The “Yield of Oilseed Rape” value was determined as 4.22 T/ha in test [1] (100 g ai/ha), 4.29 T/ha in test [1] (130 g ai/ha), 4.23 T/ha in test [1] (150 g ai/ha) and 4.48 T/ha in test [1] (200 g ai/ha). For the same molecule, the “Percent (%) Incidence … in Oilseed Rape” value amounted to 24% in test [1] (100 g ai/ha), 24% in test [1] (130 g ai/ha), 19% in test [1] (150 g ai/ha) and 14% in test [1] (200 g ai/ha). Further, the “Number of Sclerotinia Formed per Colony” value in test [3] (0.1 ppm) is 3.33; in test [3] (1 ppm), 2.33; in test [3] (10 ppm), 1.67; in test [3] (100 ppm), 1.33. The inhibition at 0.1 ppm in test [3] is 28.3%; in test [4] it was 8.63%. For the same molecule, the inhibition at 1 ppm in test [3] is 72.4%; in test [4], 66.1%. Besides, the inhibition at 10 ppm in test [3] was 80.7%; in test [4], 92.5%. For the same molecule, the figures for the inhibition at 100 ppm in test [3] and in test [4] were 91% and 100%, respectively.
Take `O=[N+]([O-])c1cc(C(F)(F)F)c(Cl)c([N+](=O)[O-])c1Nc1ncc(C(F)(F)F)cc1Cl` [Fluazinam, fluazinam]: the “Percent (%) Incidence of Sclerotinia sclerotiorum at R7 Growth Stage on Dry Bean” value in test [2] (500 g ai/ha) was 0.8%. In addition, the “Number of Sclerotinia Formed per Colony” value worked out at 5.7 in test [3] (0.1 ppm), 4.3 in test [3] (1 ppm), 0 in test [3] (10 ppm) and 0 in test [3] (100 ppm). The inhibition at 0.1 ppm in test [3] (0.1 ppm, 22° C., 8 days) was 59.7%; in test [4] (0.1 ppm, leaves immersed 3 s), 25.9%. Moreover, the inhibition at 1 ppm amounted to 71.6% in test [3] (1 ppm, 22° C., 8 days) and 53.5% in test [4] (1 ppm, leaves immersed 3 s). In addition, the inhibition at 10 ppm in test [3] (10 ppm, 22° C., 8 days) is 82.6%; in test [4] (10 ppm, leaves immersed 3 s), 66.1%. The inhibition at 100 ppm in test [3] (100 ppm, 22° C., 8 days) was 100%; in test [4] (100 ppm, leaves immersed 3 s), 100%.
Regarding `CC12CC1(C)C(=O)N(c1cc(Cl)cc(Cl)c1)C2=O` (centres unmarked) [Procymidone, procymidone], the “Number of Sclerotinia Formed per Colony” value in test [3] (0.1 ppm) was found to be 18.67; in test [3] (1 ppm), 16.2; in test [3] (10 ppm) it was 1.67; in test [3] (100 ppm), 0. In addition, the inhibition at 0.1 ppm in test [3] (0.1 ppm, 22° C., 8 days) amounted to 10%; in test [4] (0.1 ppm, leaves immersed 3 s) it was 19.5%. Also, the inhibition at 1 ppm in test [3] (1 ppm, 22° C., 8 days) amounted to 24.5%; in test [4] (1 ppm, leaves immersed 3 s), 59.8%. In addition, the inhibition at 10 ppm in test [3] (10 ppm, 22° C., 8 days) turned out to be 68.2%; in test [4] (10 ppm, leaves immersed 3 s) it was 85.1%. Also, the inhibition at 100 ppm stood at 100% in test [3] (100 ppm, 22° C., 8 days) and 100% in test [4] (100 ppm, leaves immersed 3 s).
`COC(=O)NC(=S)Nc1ccccc1NC(=S)NC(=O)OC` [Thiophanate-Methyl, thiophanate-methyl]: the “Number of Sclerotinia Formed per Colony” value in test [3] (0.1 ppm) was 19.25; in test [3] (1 ppm), 17.56; in test [3] (10 ppm) it was 0; in test [3] (100 ppm), 0. Moreover, the inhibition at 0.1 ppm in test [3] (0.1 ppm, 22° C., 8 days) worked out at 0%; in test [4] (0.1 ppm, leaves immersed 3 s), 20.7%. In addition, the inhibition at 1 ppm was 32.2% in test [3] (1 ppm, 22° C., 8 days) and 43.1% in test [4] (1 ppm, leaves immersed 3 s). Also, the inhibition at 10 ppm amounted to 78.3% in test [3] (10 ppm, 22° C., 8 days) and 87.4% in test [4] (10 ppm, leaves immersed 3 s). The inhibition at 100 ppm in test [3] (100 ppm, 22° C., 8 days) was 100%; in test [4] (100 ppm, leaves immersed 3 s), 100%.

(Values after US20190124924A1, “FUNGAL CONTROL OF WHITE MOLD” (DOW AGROSCIENCES LLC, priority 2015, published 2019).)
